Experimental findings from patent US20250059188A1, “ARYLSULPHONAMIDE COMPOUNDS” (Anaxis Pharma Pty Ltd, priority 2021, published 2025) are described below.

The term pIC50 denotes the IC50 on a negative log10 scale, so that one unit is a factor of ten. For orientation: pKd means the negative decadic logarithm of the Kd, by convention in mol/L. A higher pKd goes with a low Kd.

Assay [1] relates to Immortalised Mouse Dermal Fibroblasts (MDFs). The assay can be described thus: Inhibition of TSI induced necroptosis in mouse dermal fibroblasts (CellTitre-Glo). To be noted: Mus musculus, Fibroblast, 3 h, MDF cells, TSI cocktail (TNF, Smac mimetic, IDN-6556), read-out: Inhibition of TSI-induced necroptosis (IC50 cell-based assay) in MDF. On the procedure:
Cellular Assay: Screening Compounds for Inhibition of TSI Induced Necroptosis in, 384 well plate format. • Cell Line ID: Immortalised Mouse Dermal Fibroblasts (MDFs). • Cell Concentration (cells/well): Final cell density is 2200 cells per well. • Cell growth medium: DMEM medium+7.4% Fetal Bovine Serum (FBS). Cells are cultured in Corning 150 cm^2 tissue culture flasks with vented caps at 37° C./10% CO2. • Incubation: Plates were incubated for 30 minutes following addition of compounds and then 3 hours incubation with death stimuli (TSI cocktail) at 37° C./10% CO2 in a humidified incubator. • Compound concentration: 36 μM starting concentration, 1:3 dilution, 10 point • DMSO final concentration (% v/v): 0.3%. Compounds in TSI Cocktail (T: TNF; S: Smac Mimetic; I: IDN-6556) and their Final Concentrations: • rhTNF (100 ng/ml) • Compound A (500 nM)—Smac mimetic, Tetralogic and SYNthesis med chem • IDN-6556 (10 μM)—Selleckchem (S7775)
The cellular assay was carried out according to the following steps: • 1. Each well was prepared by sequential addition of: • a. 40 μL of cell suspension (5.5×10^4 cells/mL) was added to each well to provide a final cell concentration of 2,200 cells per well. • b. After 24 hours, DMSO (control; columns 1-2 and 23-24) or compound in DMSO—addition was performed using acoustic transfer of nL volumes of stock compound to give final test concentrations of 36, 12, 4, 1.3, 0.44, 0.148, 0.049, 0.016, 0.005 and 0.002 μM. All wells were backfilled with DMSO to a final total volume in the well of 100 nL. • c. Following compound/DMSO addition in step (b), Plates were incubated for 30 minutes at 37° C./10% CO2 in a humidified incubator and then 10 μL of 5×TSI cocktail (except to positive controls; columns 2 and 24) was added to each well. • 2. After 3 hours, plate was removed from the 37° C. incubator and equilibrated to room temperature for 15 minutes. • 3. 15 μL of room temperature CellTitre-Glo2™ (Promega™) was added to each well. • 4. Shook plates for 2 minutes (˜600 rpm) and incubated at room temperature for 15 minutes to allow signal to stabilise. • 5. Read luminescence readout on a plate reader.
Percent viability was calculated for each compound according to equation (2): […]
10 point titration curves were fitted with the 4 parameter logistic nonlinear regression model and the IC50 reported reflect the inflection point of the curve for curve fitting.
• Assay involving the TSI cocktail (T: TNF; S: Smac mimetic; I: IDN-6556): TSI treatment ensures that cells specifically undergo necroptotic cell death. TNF activates the TNF receptor, Smac mimetic directs the signal away from proinflammatory signaling and toward the RIPK1/RIPK3-mediated cell death pathways, and IDN-6556 (Caspase inhibitor) ensures that the apoptotic response is blocked leaving only the programmed necrosis response. The compounds' activity (solution in DMSO) tested in this TSI-induced assay was evaluated by determining the number of viable cells in culture by measuring the amount of ATP present as measured by CelltiterGlo.

Assay [2] concerns U937 cells. The assay can be described thus: Counter screen: U937 cell viability without TSQ cocktail (off-target effect). To be noted: Homo sapiens, U-937, compound without TSQ cocktail, read-out: Off-target effect (IC50 cell-based assay). Details: species or system human. The gist of the method:
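Off-target viability counter screen: compounds titrated 36 μM down 1:3 over 10 points (0.3% DMSO) on 20,000 U937 cells/well, no TNF/Smac mimetic/Q-VD-OPh added, 48 h incubation. ATP-based CellTiter-Glo luminescence, four-parameter logistic IC50.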

The test system of assay [3] is U937 human histiocytic leukemia cell line. The assay can be described thus: Inhibition of TSQ induced necroptosis in U937 cells (CellTitre-Glo). To be noted: Homo sapiens, U-937, TSQ cocktail (TNF, Smac mimetic, Q-VD-OPh), 48 hours, read-out: Inhibition of TSQ-induced necroptosis (IC50 cell-based assay). The gist of the method: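 Necroptosis was induced with TNF-Fc (100 ng/ml), Smac mimetic (500 nM) and Q-VD-OPh (10 μM) in 20000 U937 cells/well exposed to a 10-point, 3-fold compound series (top 36 μM, 0.3% DMSO). ATP luminescence read after 48 h; 4-parameter fit gave IC50. Parallel TSQ-free wells assessed compound toxicity.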

Assay [4] deals with human RIPK1 (Homo sapiens (Human), UniProt Q13546). The assay can be described thus: KINOMEscan binding assay, human RIPK1. The conditions noted are these: equilibrium dissociation constant. The gist of the method:
(§1)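 Active-site competition binding: DNA-tagged kinase (T7 phage fusion from BL21-derived E. coli lysate, or HEK-293-expressed) captured on immobilized-ligand beads, with bound kinase in the eluate quantified by qPCR. Compounds ran as 11-point 3-fold dilutions, 1% DMSO, top 30,000 nM for most. Kd came from a Hill fit (slope −1).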

Assay [5] concerns the target human RIPK3 (Homo sapiens (Human), UniProt Q9Y572). As to the kind of experiment: KINOMEscan binding assay, human RIPK3. The conditions noted are these: equilibrium dissociation constant. Summed up:
as §1

Assay [6] concerns the target human MLKL (full length) (Homo sapiens (Human), UniProt Q8NB16). As to the kind of experiment: KINOMEscan binding assay, human MLKL (full length). To be noted: equilibrium dissociation constant. The gist of the method: as §1

pIC50, pKd: −log10 of the molar value.

Chain of human RIPK1 (Q13546 whole entry, the tested form may be a part): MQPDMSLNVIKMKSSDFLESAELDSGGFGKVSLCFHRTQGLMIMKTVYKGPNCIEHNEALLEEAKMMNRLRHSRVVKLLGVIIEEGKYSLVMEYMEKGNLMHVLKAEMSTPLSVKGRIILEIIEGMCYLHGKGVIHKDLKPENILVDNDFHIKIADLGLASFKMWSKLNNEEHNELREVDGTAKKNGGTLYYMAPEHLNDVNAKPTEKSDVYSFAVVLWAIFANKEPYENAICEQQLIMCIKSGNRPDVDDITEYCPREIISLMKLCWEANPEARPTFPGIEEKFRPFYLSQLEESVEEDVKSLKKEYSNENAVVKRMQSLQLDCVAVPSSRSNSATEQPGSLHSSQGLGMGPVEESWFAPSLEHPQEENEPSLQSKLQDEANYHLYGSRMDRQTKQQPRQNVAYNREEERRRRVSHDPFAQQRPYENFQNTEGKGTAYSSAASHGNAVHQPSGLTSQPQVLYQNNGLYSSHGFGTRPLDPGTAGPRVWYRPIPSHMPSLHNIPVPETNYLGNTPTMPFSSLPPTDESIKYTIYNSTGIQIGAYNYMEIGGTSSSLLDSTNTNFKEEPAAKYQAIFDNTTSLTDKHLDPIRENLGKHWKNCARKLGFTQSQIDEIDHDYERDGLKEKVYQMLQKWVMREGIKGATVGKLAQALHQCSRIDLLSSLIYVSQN
Chain of human MLKL (full length) (Q8NB16 whole entry): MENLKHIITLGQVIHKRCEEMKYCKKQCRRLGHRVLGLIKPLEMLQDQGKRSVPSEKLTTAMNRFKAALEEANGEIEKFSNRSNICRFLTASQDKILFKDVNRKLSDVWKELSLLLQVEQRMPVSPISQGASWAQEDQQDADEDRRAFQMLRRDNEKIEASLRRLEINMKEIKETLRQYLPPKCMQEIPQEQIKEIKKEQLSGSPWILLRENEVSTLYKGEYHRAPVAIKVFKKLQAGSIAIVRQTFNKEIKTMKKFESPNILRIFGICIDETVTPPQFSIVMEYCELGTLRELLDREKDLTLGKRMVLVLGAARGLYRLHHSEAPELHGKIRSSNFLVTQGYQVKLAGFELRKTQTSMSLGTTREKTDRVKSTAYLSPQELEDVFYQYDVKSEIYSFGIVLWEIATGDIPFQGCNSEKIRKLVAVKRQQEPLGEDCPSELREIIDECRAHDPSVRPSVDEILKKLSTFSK
Chain of human RIPK3 (Q9Y572 whole entry): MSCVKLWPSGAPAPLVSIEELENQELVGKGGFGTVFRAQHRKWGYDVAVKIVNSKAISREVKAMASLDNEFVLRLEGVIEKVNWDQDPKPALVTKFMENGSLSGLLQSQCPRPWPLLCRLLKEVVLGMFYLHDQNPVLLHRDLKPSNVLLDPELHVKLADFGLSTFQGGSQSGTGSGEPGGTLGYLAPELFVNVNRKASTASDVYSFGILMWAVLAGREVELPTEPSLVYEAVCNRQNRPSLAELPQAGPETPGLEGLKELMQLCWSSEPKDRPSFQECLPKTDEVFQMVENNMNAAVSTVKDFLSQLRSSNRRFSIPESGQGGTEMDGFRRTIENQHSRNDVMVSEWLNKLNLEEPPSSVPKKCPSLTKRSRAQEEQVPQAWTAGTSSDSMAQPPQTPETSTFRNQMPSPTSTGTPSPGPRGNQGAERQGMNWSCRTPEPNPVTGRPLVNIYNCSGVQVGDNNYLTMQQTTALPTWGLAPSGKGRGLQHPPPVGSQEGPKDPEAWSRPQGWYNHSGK

For the molecule `C[C@H](Oc1cc(-c2nn(C)c3c(-c4cnn(C5CCC(N(C)C)C5)c4)cnc(N)c23)ccc1NS(=O)(=O)C(F)F)c1ccc(F)cc1` (stereo partly drawn) [Compound 168, N-(4-(4-amino-7-(1-(3-(dimethylamino)cyclopentyl)-1H-pyrazol-4-yl)-1-methyl-1H-pyrazolo[4,3-c]pyridin-3-yl)-2-((S)-1-(4-fluorophenyl)ethoxy)phenyl)-1,1-difluoromethanesulfonamide], the pIC50 is 6.00 to 7.00 in assay [1], under 5.00 in assay [2] and 6.00 to 8.00 in assay [3].

Regarding `CCS(=O)(=O)Nc1ccc(-c2coc3c(-c4cnn(C5CCOCC5)c4)cnc(N)c23)cc1OCc1ccc(F)cc1` [Compound 3, N-(4-(4-amino-7-(1-(tetrahydro-2H-pyran-4-yl)-1H-pyrazol-4-yl)furo[3,2-c]pyridin-3-yl)-2-((4-fluorobenzyl)oxy)phenyl)ethanesulfonamide], the pKd in assay [4] was under 5.00; in assay [5], under 5.00; in assay [6] it was over 9.00. Further, the pIC50 in assay [1] was 5.00 to 6.00.

As to `C[C@H](Oc1cc(-c2nn(C)c3c(-c4cnc(N)nc4)cnc(N)c23)ccc1NS(=O)(=O)C(F)F)c1ccc(F)cc1` [Compound 108, (S)-N-(4-(4-amino-7-(2-aminopyrimidin-5-yl)-1-methyl-1H-pyrazolo[4,3-c]pyridin-3-yl)-2-(1-(4-fluorophenyl)ethoxy)phenyl)-1,1-difluoromethanesulfonamide], the pKd was under 5.00 in assay [4], under 5.00 in assay [5] and over 9.00 in assay [6]. Moreover, the pIC50 is under 5.00 in assay [2] and 6.00 to 8.00 in assay [3].

As for `C[C@H](Oc1cc(-c2cnn3c(-c4ccncc4)cnc(N)c23)ccc1NS(=O)(=O)C(F)F)c1ccc(F)cc1` [Compound 39, (S)-N-(4-(4-amino-7-(pyridin-4-yl)pyrazolo[1,5-a]pyrazin-3-yl)-2-(1-(4-fluorophenyl)ethoxy)phenyl)-1,1-difluoromethanesulfonamide], the pKd in assay [4] was under 5.00; in assay [5], under 5.00; in assay [6], over 9.00. Further, the pIC50 in assay [2] was under 5.00; in assay [3] it was 6.00 to 8.00.

For the molecule `Cn1nc(-c2ccc(NS(=O)(=O)C(F)F)c(OCC3CCCCC3)c2)c2c(N)ncc(-c3cnn(C4CCOCC4)c3)c21` [Compound 150, N-(4-(4-amino-1-methyl-7-(1-(tetrahydro-2H-pyran-4-yl)-1H-pyrazol-4-yl)-1H-pyrazolo[4,3-c]pyridin-3-yl)-2-(cyclohexylmethoxy)phenyl)-1,1-difluoromethanesulfonamide], the pKd in assay [4] is under 5.00; in assay [5], under 5.00; in assay [6], over 9.00. For the same molecule, in assay [1], the pIC50 is 5.00 to 6.00.

Regarding `C[C@H](Oc1cc(-c2nn(C)c3c(-c4ccccc4)cnc(N)c23)ccc1NS(=O)(=O)C(F)F)c1ccc(F)cc1` [Compound 86, (S)-N-(4-(4-amino-1-methyl-7-phenyl-1H-pyrazolo[4,3-c]pyridin-3-yl)-2-(1-(4-fluorophenyl)ethoxy)phenyl)-1,1-difluoromethanesulfonamide], the negative logarithm of the Kd (pKd) in assay [4] was under 5.00; in assay [5] it was under 5.00; in assay [6] it was 7.00 to 9.00. The pIC50 in assay [2] was under 5.00; in assay [3], 6.00 to 8.00.

For `C[C@H](Oc1cc(-c2nn(C)c3c(N4CCOCC4)cnc(N)c23)ccc1NS(=O)(=O)C(F)F)c1ccc(F)cc1` [Compound 141, N-{4-[4-amino-1-methyl-7-(morpholin-4-yl)-1H-pyrazolo[4,3-c]pyridin-3-yl]-2-[(1S)-1-(4-fluorophenyl)ethoxy]phenyl}-1,1-difluoromethanesulfonamide], the pKd was under 5.00 in assay [4], under 5.00 in assay [5] and 7.00 to 9.00 in assay [6]. The pIC50 was under 5.00 in assay [2] and 6.00 to 8.00 in assay [3].

As for `CC#Cc1cnc(N)c2c(-c3ccc(NS(=O)(=O)C(F)F)c(O[C@@H](C)c4ccc(F)cc4)c3)nn(C)c12` [Compound 56, (S)-N-(4-(4-amino-1-methyl-7-(prop-1-yn-1-yl)-1H-pyrazolo[4,3-c]pyridin-3-yl)-2-(1-(4-fluorophenyl)ethoxy)phenyl)-1,1-difluoromethanesulfonamide], the pKd in assay [4] is under 5.00; in assay [5] it was under 5.00; in assay [6], over 9.00. Also, the figures for the pIC50 in assay [2] and in assay [3] were under 5.00 and 6.00 to 8.00, respectively.

With `C[C@H](Oc1cc(-c2nn(C)c3c(-c4ccc(Cl)cc4)cnc(N)c23)ccc1NS(=O)(=O)C(F)F)c1ccc(F)cc1` [Compound 87, (S)-N-(4-(4-amino-7-(4-chlorophenyl)-1-methyl-1H-pyrazolo[4,3-c]pyridin-3-yl)-2-(1-(4-fluorophenyl)ethoxy)phenyl)-1,1-difluoromethanesulfonamide], the pKd was under 5.00 in assay [4], under 5.00 in assay [5] and 7.00 to 9.00 in assay [6]. The results for the pIC50 in assay [2] and in assay [3] were under 5.00 and 5.00 to 6.00, respectively.

`C[C@H](Oc1cc(-c2nn(C)c3c(-c4ccc(N5CCN(C)CC5)nc4)cnc(N)c23)ccc1NS(=O)(=O)C(F)F)c1ccc(F)cc1` [Compound 107, (S)-N-(4-(4-amino-1-methyl-7-(6-(4-methylpiperazin-1-yl)pyridin-3-yl)-1H-pyrazolo[4,3-c]pyridin-3-yl)-2-(1-(4-fluorophenyl)ethoxy)phenyl)-1,1-difluoromethanesulfonamide]: the negative logarithm of the Kd (pKd) in assay [4] is under 5.00; in assay [5] it was under 5.00; in assay [6] it was over 9.00. The negative-log IC50 (pIC50) is under 5.00 in assay [2] and 6.00 to 8.00 in assay [3].

`Cn1cc(-c2cnc(N)c3c(-c4ccc(NS(=O)(=O)C(F)F)c(OCc5ccc(F)cc5)c4)nn(C)c23)cn1` [Compound 16, N-(4-(4-amino-1-methyl-7-(1-methyl-1H-pyrazol-4-yl)-1H-pyrazolo[4,3-c]pyridin-3-yl)-2-((4-fluorobenzyl)oxy)phenyl)-1,1-difluoromethanesulfonamide]: the pKd was under 5.00 in assay [4], under 5.00 in assay [5] and over 9.00 in assay [6]. Further, the pIC50 in assay [2] is under 5.00; in assay [3] it was 5.00 to 6.00.

As for `C[C@H](Oc1cc(-c2nn(C)c3c(-c4cnn(C5CCOCC5)c4)cnc(N)c23)ccc1NS(C)(=O)=O)c1ccc(F)cc1` [Compound 119, (S)-N-(4-(4-amino-1-methyl-7-(1-(tetrahydro-2H-pyran-4-yl)-1H-pyrazol-4-yl)-1H-pyrazolo[4,3-c]pyridin-3-yl)-2-(1-(4-fluorophenyl)ethoxy)phenyl)methanesulfonamide], the pKd in assay [4] is under 5.00; in assay [5] it was under 5.00; in assay [6] it was 7.00 to 9.00. The negative-log IC50 (pIC50) in assay [2] was under 5.00; in assay [3], 6.00 to 8.00.
